Experimental findings from patent US10851098B2, “Azole amides and amines as alpha v integrin inhibitors” (BRISTOL-MYERS SQUIBB COMPANY, priority 2016, dated 2020) are described below.

Like-named read-outs stand apart in the source and are kept apart here.

One assay concerns the target T1, human αVβ6 (Homo sapiens, UniProt P06756+P18564).
T1 construct: purchased R & D systems 3817-AV
Nature of the assay: human αVβ6 HTRF binding assay. The essentials:
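HTRF binding format with biotinylated integrin, FITC-fibronectin and streptavidin-terbium, run in 20 mM Tris pH 7.4, 1 mM MgCl2, 1 mM MnCl2, 0.01% Tween 20, 0.01% BSA. A SPA-based binding assay was an alternative.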
(In general: Time-resolved FRET reads energy transfer from a long-lived donor to a nearby acceptor.)

The next assay concerns the target human αVβ1 (Homo sapiens, UniProt P05556+P06756). Nature of the assay: human αVβ1 HTRF binding assay. How it is done: (§1) All binding assays used the HTRF (homogeneous time resolved fluorescence) technology from Cisbio International, therefore all assays are described as HTRF binding assays. The assay results for the Examples are listed above together with the characterization data. The HTRF binding assays are established for the following integrins: human αVβ6, human αVβ1, human αVβ3, human αVβ5, and human αVβ8. All assays used the following assay buffer: 20 mM Tris, pH 7.4, 1 mM MgCl2, 1 mM MnCl2, 0.01% Tween 20, and 0.01% BSA. Alternatively, a SPA-based assay was used for evaluation of receptor binding.
(§2) […]

Another assay addresses human αVβ3 (Homo sapiens, UniProt P05106+P06756). As to the kind of experiment: human αVβ3 HTRF binding assay. Here is the method:
as §1, §2

Another assay addresses human αVβ5 (Homo sapiens, UniProt P06756+P18084). Nature of the assay: human αVβ5 HTRF binding assay. Here is the method: (§3) All binding assays used the HTRF (homogeneous time resolved fluorescence) technology from Cisbio International, therefore all assays are described as HTRF binding assays. The assay results for the Examples are listed above together with the characterization data. The HTRF binding assays are established for the following integrins: human αVβ6, human αVβ1, human αVβ3, human αVβ5, and human αVβ8. All assays used the following assay buffer: 20 mM Tris, pH 7.4, 1 mM MgCl2, 1 mM MnCl2, 0.01% Tween 20, and 0.01% BSA. Alternatively, a SPA-based assay was used for evaluation of receptor binding. […]

A further assay concerns the target human αVβ8 (Homo sapiens, UniProt P06756+P26012). Nature of the assay: human αVβ8 HTRF binding assay. Here is the method: as §3

T1 sequence (P06756 31-992 limits assumed): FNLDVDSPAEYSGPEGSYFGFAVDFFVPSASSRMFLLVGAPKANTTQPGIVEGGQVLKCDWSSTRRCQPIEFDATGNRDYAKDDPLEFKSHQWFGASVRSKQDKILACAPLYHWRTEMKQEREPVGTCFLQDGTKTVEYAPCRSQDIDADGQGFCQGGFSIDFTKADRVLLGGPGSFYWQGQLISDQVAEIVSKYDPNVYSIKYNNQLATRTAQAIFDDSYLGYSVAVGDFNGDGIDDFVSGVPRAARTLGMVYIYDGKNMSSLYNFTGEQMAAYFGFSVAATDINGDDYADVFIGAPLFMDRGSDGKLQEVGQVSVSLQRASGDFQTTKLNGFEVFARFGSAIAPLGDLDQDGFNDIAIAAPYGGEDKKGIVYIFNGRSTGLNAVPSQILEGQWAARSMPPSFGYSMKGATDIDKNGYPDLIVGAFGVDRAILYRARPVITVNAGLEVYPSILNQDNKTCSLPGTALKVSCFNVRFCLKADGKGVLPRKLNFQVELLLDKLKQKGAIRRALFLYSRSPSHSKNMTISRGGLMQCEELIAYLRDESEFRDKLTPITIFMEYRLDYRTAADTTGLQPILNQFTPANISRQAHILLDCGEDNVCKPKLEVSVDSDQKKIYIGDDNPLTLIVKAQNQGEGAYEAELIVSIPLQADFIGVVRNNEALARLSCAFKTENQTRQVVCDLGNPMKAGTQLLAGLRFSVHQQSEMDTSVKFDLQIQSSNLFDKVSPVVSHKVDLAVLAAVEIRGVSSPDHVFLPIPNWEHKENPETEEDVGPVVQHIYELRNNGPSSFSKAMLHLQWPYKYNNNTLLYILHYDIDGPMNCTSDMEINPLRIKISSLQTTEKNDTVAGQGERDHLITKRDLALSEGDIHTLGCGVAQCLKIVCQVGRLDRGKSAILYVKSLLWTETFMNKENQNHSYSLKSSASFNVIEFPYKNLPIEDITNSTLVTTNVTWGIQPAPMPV
T1 sequence (P18564 22-707 limits assumed): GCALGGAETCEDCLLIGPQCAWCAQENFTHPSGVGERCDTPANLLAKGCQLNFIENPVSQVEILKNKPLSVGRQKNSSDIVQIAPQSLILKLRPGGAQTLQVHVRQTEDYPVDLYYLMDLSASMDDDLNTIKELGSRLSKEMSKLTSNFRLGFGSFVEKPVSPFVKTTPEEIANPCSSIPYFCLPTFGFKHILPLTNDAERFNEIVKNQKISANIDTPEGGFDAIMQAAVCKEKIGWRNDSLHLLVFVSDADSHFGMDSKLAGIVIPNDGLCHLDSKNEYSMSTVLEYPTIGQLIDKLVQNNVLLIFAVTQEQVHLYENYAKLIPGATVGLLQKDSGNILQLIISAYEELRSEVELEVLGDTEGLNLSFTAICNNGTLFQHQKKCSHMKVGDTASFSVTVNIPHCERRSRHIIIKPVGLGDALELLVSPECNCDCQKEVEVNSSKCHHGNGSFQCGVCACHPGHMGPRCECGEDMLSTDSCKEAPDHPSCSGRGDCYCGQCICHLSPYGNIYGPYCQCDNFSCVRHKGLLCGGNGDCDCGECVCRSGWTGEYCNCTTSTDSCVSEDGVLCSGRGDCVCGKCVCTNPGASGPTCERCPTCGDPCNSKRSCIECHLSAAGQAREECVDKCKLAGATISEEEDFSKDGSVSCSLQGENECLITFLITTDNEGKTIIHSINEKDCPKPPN
human αVβ1, sequence (P06756 31-992 limits assumed): as the sequence (P06756 31-992 limits assumed) above
human αVβ1, sequence (P05556 21-728 limits assumed): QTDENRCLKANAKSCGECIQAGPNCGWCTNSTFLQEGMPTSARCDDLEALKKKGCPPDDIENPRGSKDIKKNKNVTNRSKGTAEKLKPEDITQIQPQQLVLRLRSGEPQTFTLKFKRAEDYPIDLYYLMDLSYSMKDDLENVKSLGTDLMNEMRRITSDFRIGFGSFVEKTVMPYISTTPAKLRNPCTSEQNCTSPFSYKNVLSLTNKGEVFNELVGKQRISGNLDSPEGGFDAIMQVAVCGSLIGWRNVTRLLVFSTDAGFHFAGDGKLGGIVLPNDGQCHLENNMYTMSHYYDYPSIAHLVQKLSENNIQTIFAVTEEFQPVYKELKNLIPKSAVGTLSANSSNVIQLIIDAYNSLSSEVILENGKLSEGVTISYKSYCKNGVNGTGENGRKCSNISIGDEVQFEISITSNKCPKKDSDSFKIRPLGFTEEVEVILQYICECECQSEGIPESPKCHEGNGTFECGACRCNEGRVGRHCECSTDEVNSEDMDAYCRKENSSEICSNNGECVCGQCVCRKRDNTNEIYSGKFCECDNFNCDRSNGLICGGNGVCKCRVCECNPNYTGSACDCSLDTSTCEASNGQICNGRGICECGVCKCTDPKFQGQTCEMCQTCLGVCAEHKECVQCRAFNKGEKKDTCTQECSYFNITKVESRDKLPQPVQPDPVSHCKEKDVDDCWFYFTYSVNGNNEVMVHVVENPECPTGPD
human αVβ8, sequence (P06756 31-992 limits assumed): as the sequence (P06756 31-992 limits assumed) above
human αVβ8, sequence (P26012 43-684 limits assumed): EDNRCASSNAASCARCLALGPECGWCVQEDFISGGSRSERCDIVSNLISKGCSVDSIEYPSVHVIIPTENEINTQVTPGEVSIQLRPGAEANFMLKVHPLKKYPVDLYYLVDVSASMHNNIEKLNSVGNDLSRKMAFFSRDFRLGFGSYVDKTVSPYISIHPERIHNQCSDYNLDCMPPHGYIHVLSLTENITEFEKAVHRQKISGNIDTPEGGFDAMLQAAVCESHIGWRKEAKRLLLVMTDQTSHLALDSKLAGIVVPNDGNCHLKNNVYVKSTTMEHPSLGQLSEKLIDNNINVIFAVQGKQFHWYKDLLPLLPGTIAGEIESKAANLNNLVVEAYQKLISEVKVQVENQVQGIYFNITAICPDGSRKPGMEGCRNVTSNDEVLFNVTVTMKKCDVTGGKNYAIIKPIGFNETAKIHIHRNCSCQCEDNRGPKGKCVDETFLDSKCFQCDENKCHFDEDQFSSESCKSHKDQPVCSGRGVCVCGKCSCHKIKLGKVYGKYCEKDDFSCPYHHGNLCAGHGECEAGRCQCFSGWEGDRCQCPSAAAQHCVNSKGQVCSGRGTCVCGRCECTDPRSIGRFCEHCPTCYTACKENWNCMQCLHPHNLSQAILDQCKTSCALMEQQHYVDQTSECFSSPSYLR
human αVβ3, sequence (P06756 31-992 limits assumed): as the sequence (P06756 31-992 limits assumed) above
human αVβ3, sequence (P05106 27-718 limits assumed): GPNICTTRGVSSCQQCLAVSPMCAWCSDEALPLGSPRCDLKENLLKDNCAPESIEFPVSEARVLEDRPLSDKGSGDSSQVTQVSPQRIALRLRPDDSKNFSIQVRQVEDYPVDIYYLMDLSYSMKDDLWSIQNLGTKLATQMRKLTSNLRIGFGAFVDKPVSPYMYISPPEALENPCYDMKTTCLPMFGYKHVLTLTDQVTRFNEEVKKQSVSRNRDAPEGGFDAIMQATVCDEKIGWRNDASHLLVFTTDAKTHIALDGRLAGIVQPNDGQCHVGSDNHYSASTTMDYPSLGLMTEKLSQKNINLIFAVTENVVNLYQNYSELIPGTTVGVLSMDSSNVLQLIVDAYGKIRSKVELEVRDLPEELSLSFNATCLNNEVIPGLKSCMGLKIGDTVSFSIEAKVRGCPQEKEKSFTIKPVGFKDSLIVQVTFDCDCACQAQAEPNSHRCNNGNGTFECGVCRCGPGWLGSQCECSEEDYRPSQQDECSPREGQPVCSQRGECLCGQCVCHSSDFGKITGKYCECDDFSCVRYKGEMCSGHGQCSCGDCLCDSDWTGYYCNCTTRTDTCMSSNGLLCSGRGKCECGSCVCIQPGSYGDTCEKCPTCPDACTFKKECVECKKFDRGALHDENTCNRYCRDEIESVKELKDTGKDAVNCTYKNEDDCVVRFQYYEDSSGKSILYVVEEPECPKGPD
human αVβ5, sequence (P06756 31-992 limits assumed): as the sequence (P06756 31-992 limits assumed) above
human αVβ5, sequence (P18084 24-719 limits assumed): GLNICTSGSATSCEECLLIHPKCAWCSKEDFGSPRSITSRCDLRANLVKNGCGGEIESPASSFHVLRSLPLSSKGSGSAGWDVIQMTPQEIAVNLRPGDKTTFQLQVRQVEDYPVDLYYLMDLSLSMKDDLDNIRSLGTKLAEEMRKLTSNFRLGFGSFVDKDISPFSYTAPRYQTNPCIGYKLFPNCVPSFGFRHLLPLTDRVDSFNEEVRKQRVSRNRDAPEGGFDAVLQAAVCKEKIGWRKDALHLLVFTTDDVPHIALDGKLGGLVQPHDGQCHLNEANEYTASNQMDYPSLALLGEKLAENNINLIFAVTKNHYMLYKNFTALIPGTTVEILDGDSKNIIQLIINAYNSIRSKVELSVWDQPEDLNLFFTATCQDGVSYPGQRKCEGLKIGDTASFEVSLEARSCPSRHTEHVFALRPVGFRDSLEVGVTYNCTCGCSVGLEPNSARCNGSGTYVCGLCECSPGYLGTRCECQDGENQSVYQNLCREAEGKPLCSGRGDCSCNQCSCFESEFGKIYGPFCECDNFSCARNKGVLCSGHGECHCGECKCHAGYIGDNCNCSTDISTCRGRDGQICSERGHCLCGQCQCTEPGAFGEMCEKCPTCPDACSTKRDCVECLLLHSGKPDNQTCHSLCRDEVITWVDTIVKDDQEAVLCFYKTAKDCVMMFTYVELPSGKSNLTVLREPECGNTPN

In general, IC50 refers to the concentration that inhibits the measured activity by half. Consider `Cc1cc(C)c(S(=O)(=O)N[C@@H](CNC(=O)c2cnn(CCc3ccc4c(n3)NCCC4)c2)C(=O)O)c(C)c1` [Example 10, (S)-3-(1-(2-(5,6,7,8-Tetrahydro-1,8-naphthyridin-2-yl)ethyl)-1H-pyrazole-4-carboxamido)-2-((2,4,6-trimethylphenyl)sulfonamido)propanoic acid], for which the IC50 on human αVβ6 was 0.5 nM; at human αVβ1 it was 6.3 nM; at human αVβ3 (read-out: Human αVβ3 IC50), 1.9 nM; at human αVβ5 it was 0.2 nM; on human αVβ8, 14 nM.

Turning to `Cc1cc(C)c(S(=O)(=O)N[C@@H](CNC(=O)c2cnn(CCc3ccc4c(n3)NCCC4)n2)C(=O)O)c(C)c1` [Example 113], the half-maximal inhibitory concentration (IC50) on human αVβ6 was 1.3 nM; on human αVβ1 it was 111 nM; on human αVβ3 (read-out: Human αVβ3 IC50), 3 nM; at human αVβ5, 0.3 nM; on human αVβ8, 57 nM.

As for `CCCCOC(=O)N[C@@H](CNC(=O)c1cnn(CCc2ccc3c(n2)NCCC3)c1)C(=O)O` [Example 20, (S)-2-((Butoxycarbonyl)amino)-3-(1-(2-(5,6,7,8-tetrahydro-1,8-naphthyridin-2-yl)ethyl)-1H-pyrazole-4-carboxamido)propanoic acid], the concentration for half-maximal inhibition (IC50) on human αVβ6 stood at 1.1 nM; on human αVβ1, 27 nM; on human αVβ3 (read-out: Human αVβ3 IC50) it was 1.8 nM; at human αVβ5 it was 0.2 nM; on human αVβ8, 86 nM.

For the compound `Cc1cc(C)c(S(=O)(=O)N[C@@H](CNC(=O)c2cn(CCc3ccc4c(n3)NCCC4)nn2)C(=O)O)c(C)c1` [Example 111], the IC50 was 0.8 nM at human αVβ6; 46 nM on human αVβ1; 6.4 nM on human αVβ3 (read-out: Human αVβ3 IC50); 1.1 nM on human αVβ5; 63 nM at human αVβ8.

In the case of `Cc1cc(C)c(S(=O)(=O)N[C@H](CNC(=O)c2cn(CCc3ccc4c(n3)NCCC4)cn2)C(=O)O)c(C)c1` [Example 114], the IC50 on human αVβ6 was determined as 2 nM; at human αVβ3 (printed as αVβ4, read-out: Human αVβ4 IC50), 4.4 nM; on human αVβ5, 0.5 nM; at human αVβ8, 156 nM.

Regarding `Cc1cc(C)c(S(=O)(=O)N[C@@H](CNC(=O)c2ccn(CCc3ccc4c(n3)NCCC4)n2)C(=O)O)c(C)c1` [Example 112], the IC50 at human αVβ6 is 1 nM; at human αVβ1, 45 nM; on human αVβ3 (read-out: Human αVβ3 IC50) it was 2 nM; at human αVβ5 it was 0.4 nM; on human αVβ8 it was 115 nM.

Regarding `Cc1cc(C)c(S(=O)(=O)N[C@@H](CNC(=O)c2ncn(CCc3ccc4c(n3)NCCC4)n2)C(=O)O)c(C)c1` [Example 123], the half-inhibitory concentration (IC50) on human αVβ6 was 2 nM; at human αVβ1, 126 nM; on human αVβ3 (read-out: Human αVβ3 IC50), 2.1 nM; at human αVβ5, 902 nM; at human αVβ8 it was 152 nM.

With `Cc1cc(C)c(S(=O)(=O)N[C@@H](CNC(=O)c2ccn(CCc3ccc4c(n3)NCCC4)c2)C(=O)O)c(C)c1` [Example 119], the IC50 was found to be 0.5 nM at human αVβ6; 6.3 nM on human αVβ1; 1.5 nM at human αVβ3 (read-out: Human αVβ3 IC50); 0.2 nM at human αVβ5; 31 nM on human αVβ8.

Take `O=C(N[C@H](CNC(=O)c1cn(CCc2ccc3c(n2)NCCC3)cn1)C(=O)O)OCc1ccccc1` [Example 121]: the IC50 at human αVβ6 worked out at 2.3 nM; at human αVβ1, 77 nM; at human αVβ3 (read-out: Human αVβ3 IC50) it was 1.6 nM; at human αVβ5, 0.3 nM; at human αVβ8, 246 nM.

On human αVβ6, `O=C(O)CC(NC(=O)c1cnn(CCc2ccc3c(n2)NCCC3)c1CO)c1cccc(OC(F)(F)F)c1` (stereo not drawn) [Example 36] had a half-maximal inhibitory concentration (IC50) of 11 nM.

In turn, `O=C(NC[C@H](NS(=O)(=O)Cc1ccccc1F)C(=O)O)c1cnn(CCc2ccc3c(n2)NCCC3)c1` [Example 166] gave a concentration for half-maximal inhibition (IC50) on human αVβ6 of 10 nM.

Turning to `O=C(N[C@@H](CNC(=O)c1cnn(CCc2ccc3c(n2)NCCC3)c1)C(=O)O)OCc1ccccc1` [Example 12, (S)-2-(((Benzyloxy)carbonyl)amino)-3-(1-(2-(5,6,7,8-tetrahydro-1,8-naphthyridin-2-yl)ethyl)-1H-pyrazole-4-carboxamido)propanoic acid], the IC50 at human αVβ6 stood at 1.1 nM; at human αVβ3 (read-out: Human αVβ3 IC50), 2.1 nM; on human αVβ5, 0.2 nM; on human αVβ8, 49 nM.

`Cc1nn(CCc2ccc3c(n2)NCCC3)cc1C(=O)NC(CC(=O)O)c1cc(Cl)cc(Cl)c1` (stereo not drawn) [Example 70] yielded an IC50 at human αVβ6 of 112 nM.

On human αVβ6, `N#Cc1cccc(C(CC(=O)O)NC(=O)c2cnn(CCc3ccc4c(n3)NCCC4)c2CO)c1` (stereo not drawn) [Example 53] displayed an IC50 of 30 nM.

In the case of `CN(C(=O)c1cnn(CCCc2ccc3c(n2)NCCC3)c1)[C@@H](CC(=O)O)c1cc(Cl)cc(Cl)c1` [Example 45], the half-maximal inhibitory concentration (IC50) on human αVβ6 turned out to be 18 nM.

Take `Cc1ccc(CS(=O)(=O)N[C@@H](CNC(=O)c2cnn(CCc3ccc4c(n3)NCCC4)c2)C(=O)O)cc1` [Example 161]: on human αVβ6, the IC50 amounted to 15 nM.
